Results from PubChem BioAssay AID248 (DTP/NCI, 2004).
Where “and” joins values, the source holds several entries; their conditions need not be identical. Identical values can stand only once. Toxic doses and inconclusive results are not listed.

System: L1210 leukemia ip in BDF1 mice, survival T/C
Assay: NCI In Vivo Anticancer Drug Screen. Data for tumor model L1210 Leukemia (intraperitoneal) in B6D2F1 (BDF1) mice
Settings: higher = longer survival
Summary of the method: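 Antitumor effect is assessed in tumor-bearing animals. Survival in the compound arm is compared with a vehicle-dosed control arm and expressed as their quotient.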

[1] = endpoint: mean survival time, dose: 25.0 mg/kg/injection, schedule: Q01DX009 (ip), vehicle: Klucel (hydroxypropylcellulose) (HPC)
[2] = endpoint: mean survival time, dose: 200.0 mg/kg/injection, schedule: Q04DX003 (ip), vehicle: saline with Tween-80
[3] = endpoint: mean survival time, dose: 100.0 mg/kg/injection, schedule: Q04DX003 (ip), vehicle: saline with Tween-80
[4] = endpoint: mean survival time, dose: 400.0 mg/kg/injection, schedule: Q04DX003 (ip), vehicle: saline with Tween-80
[5] = endpoint: mean survival time, dose: 100.0 mg/kg/injection, schedule: Q04DX003 (ip), vehicle: Klucel (hydroxypropylcellulose) (HPC)
[6] = endpoint: mean survival time, dose: 100.0 mg/kg/injection, schedule: Q01DX001 (ip), vehicle: carboxymethylcellulose (CMC)
[7] = endpoint: mean survival time, dose: 200.0 mg/kg/injection, schedule: Q01DX001 (ip), vehicle: carboxymethylcellulose (CMC)
[8] = endpoint: mean survival time, dose: 400.0 mg/kg/injection, schedule: Q01DX001 (ip), vehicle: carboxymethylcellulose (CMC)
[9] = endpoint: mean survival time, dose: 100.0 mg/kg/injection, schedule: Q01DX009 (ip), vehicle: saline with Tween-80
[10] = endpoint: mean survival time, dose: 200.0 mg/kg/injection, schedule: Q04DX003 (ip), vehicle: Klucel (hydroxypropylcellulose) (HPC)
[11] = endpoint: mean survival time, dose: 400.0 mg/kg/injection, schedule: Q04DX003 (ip), vehicle: Klucel (hydroxypropylcellulose) (HPC)

## CCC(C)N(C)/N=N/c1nc[nH]c1C(N)=O (stereo unspecified)
endpoint: mean survival time, dose: 11.0 mg/kg/injection, schedule: Q01DX009 (ip), vehicle: Klucel (hydroxypropylcellulose) (HPC)
  T/C: 110 % of control
endpoint: mean survival time, dose: 16.7 mg/kg/injection, schedule: Q01DX009 (ip), vehicle: Klucel (hydroxypropylcellulose) (HPC)
  T/C: 123 % of control
endpoint: mean survival time, dose: 16.8 mg/kg/injection, schedule: Q01DX009 (ip), vehicle: Klucel (hydroxypropylcellulose) (HPC)
  T/C: 124 % of control
[1]
  T/C: 124 % of control
endpoint: mean survival time, dose: 25.0 mg/kg/injection, schedule: Q04DX003 (ip), vehicle: water
  T/C: 121 % of control
endpoint: mean survival time, dose: 38.0 mg/kg/injection, schedule: Q01DX009 (ip), vehicle: Klucel (hydroxypropylcellulose) (HPC)
  T/C: 159 % of control
endpoint: mean survival time, dose: 50.0 mg/kg/injection, schedule: Q01DX001 (ip), vehicle: water
  T/C: 101 % of control
endpoint: mean survival time, dose: 50.0 mg/kg/injection, schedule: Q01DX009 (ip), vehicle: water
  T/C: 154 % of control
endpoint: mean survival time, dose: 50.0 mg/kg/injection, schedule: Q04DX003 (ip), vehicle: water
  T/C: 106 % of control
endpoint: mean survival time, dose: 58.0 mg/kg/injection, schedule: Q01DX009 (ip), vehicle: Klucel (hydroxypropylcellulose) (HPC)
  T/C: 159 % of control
endpoint: mean survival time, dose: 88.0 mg/kg/injection, schedule: Q01DX009 (ip), vehicle: Klucel (hydroxypropylcellulose) (HPC)
  T/C: 150 % of control and 186 % of control
endpoint: mean survival time, dose: 100.0 mg/kg/injection, schedule: Q01DX001 (ip), vehicle: water
  T/C: 110 % of control
endpoint: mean survival time, dose: 100.0 mg/kg/injection, schedule: Q01DX009 (ip), vehicle: water
  T/C: 120 % of control
endpoint: mean survival time, dose: 100.0 mg/kg/injection, schedule: Q04DX003 (ip), vehicle: water
  T/C: 110 % of control
endpoint: mean survival time, dose: 133.0 mg/kg/injection, schedule: Q01DX009 (ip), vehicle: Klucel (hydroxypropylcellulose) (HPC)
  T/C: 106 % of control
endpoint: mean survival time, dose: 133.0 mg/kg/injection, schedule: Q04DX003 (ip), vehicle: saline with Tween-80
  T/C: 116 % of control and 124 % of control
endpoint: mean survival time, dose: 200.0 mg/kg/injection, schedule: Q01DX001 (ip), vehicle: water
  T/C: 109 % of control
[2]
  T/C: 121 % of control
endpoint: mean survival time, dose: 200.0 mg/kg/injection, schedule: Q04DX003 (ip), vehicle: water
  T/C: 106 % of control
endpoint: mean survival time, dose: 300.0 mg/kg/injection, schedule: Q04DX003 (ip), vehicle: saline with Tween-80
  T/C: 157 % of control
endpoint: mean survival time, dose: 400.0 mg/kg/injection, schedule: Q04DX003 (ip), vehicle: water
  T/C: 94 % of control
endpoint: median survival time, dose: 25.0 mg/kg/injection, schedule: Q01DX009 (ip), vehicle: Klucel (hydroxypropylcellulose) (HPC)
  T/C: 115 % of control
endpoint: median survival time, dose: 50.0 mg/kg/injection, schedule: Q01DX009 (ip), vehicle: Klucel (hydroxypropylcellulose) (HPC)
  T/C: 155 % of control
endpoint: median survival time, dose: 75.0 mg/kg/injection, schedule: Q01DX009 (ip), vehicle: Klucel (hydroxypropylcellulose) (HPC)
  T/C: 155 % of control
endpoint: median survival time, dose: 100.0 mg/kg/injection, schedule: Q01DX009 (ip), vehicle: Klucel (hydroxypropylcellulose) (HPC)
  T/C: 155 % of control
endpoint: median survival time, dose: 100.0 mg/kg/injection, schedule: Q04DX003 (ip), vehicle: Klucel (hydroxypropylcellulose) (HPC)
  T/C: 110 % of control
endpoint: median survival time, dose: 200.0 mg/kg/injection, schedule: Q04DX003 (ip), vehicle: Klucel (hydroxypropylcellulose) (HPC)
  T/C: 120 % of control
endpoint: median survival time, dose: 300.0 mg/kg/injection, schedule: Q04DX003 (ip), vehicle: Klucel (hydroxypropylcellulose) (HPC)
  T/C: 120 % of control
endpoint: median survival time, dose: 400.0 mg/kg/injection, schedule: Q04DX003 (ip), vehicle: Klucel (hydroxypropylcellulose) (HPC)
  T/C: 100 % of control

## Cn1c2ccccc2c(=O)c2cc([N+](=O)[O-])ccc21
[3]
  T/C: 93 % of control
[2]
  T/C: 97 % of control
[4]
  T/C: 93 % of control

## O=[N+]([O-])c1cc(Cl)cc2c1nc(NCCO)c1ccccc12
[1]
  T/C: 95 % of control
endpoint: mean survival time, dose: 50.0 mg/kg/injection, schedule: Q01DX009 (ip), vehicle: Klucel (hydroxypropylcellulose) (HPC)
  T/C: 97 % of control
[5]
  T/C: 97 % of control

## S=C(NNc1ccccc1)Nc1ccccc1
endpoint: mean survival time, dose: 100.0 mg/kg/injection, schedule: Q01DX001 (ip), vehicle: Klucel (hydroxypropylcellulose) (HPC)
  T/C: 93 % of control
endpoint: mean survival time, dose: 200.0 mg/kg/injection, schedule: Q01DX001 (ip), vehicle: Klucel (hydroxypropylcellulose) (HPC)
  T/C: 103 % of control
endpoint: mean survival time, dose: 400.0 mg/kg/injection, schedule: Q01DX001 (ip), vehicle: Klucel (hydroxypropylcellulose) (HPC)
  T/C: 95 % of control

## Cc1ccc(C(=O)C2CN(C)CCC2(O)c2ccc(C)cc2)cc1 (stereo unspecified)
[3]
  T/C: 96 % of control
[2]
  T/C: 103 % of control
[4]
  T/C: 96 % of control

## NC(=O)c1cc(=O)n(C2OC(CO)C(O)C2O)c2nc(N)nc(N)c12 (stereo unspecified)
endpoint: mean survival time, dose: 12.5 mg/kg/injection, schedule: Q01DX005 (ip), vehicle: water
  T/C: 93 % of control
endpoint: mean survival time, dose: 25.0 mg/kg/injection, schedule: Q01DX005 (ip), vehicle: water
  T/C: 90 % of control
endpoint: mean survival time, dose: 50.0 mg/kg/injection, schedule: Q01DX005 (ip), vehicle: water
  T/C: 90 % of control
endpoint: mean survival time, dose: 100.0 mg/kg/injection, schedule: Q01DX005 (ip), vehicle: water
  T/C: 90 % of control
endpoint: mean survival time, dose: 200.0 mg/kg/injection, schedule: Q01DX005 (ip), vehicle: water
  T/C: 93 % of control

## CC1COCC(C)N1CC(=O)Nc1ccc(S(=O)(=O)c2ccc(NC(=O)CN3C(C)COCC3C)cc2)cc1 (stereo unspecified)
[6]
  T/C: 107 % of control
[7]
  T/C: 95 % of control
[8]
  T/C: 95 % of control

## CCN=C(c1ccc(NC(=O)c2ccc(C(=O)Nc3ccc(C(=NCC)N(CC)C(=O)CC(C)C)cc3)cc2)cc1)N(CC)C(=O)CC(C)C
endpoint: mean survival time, dose: 3.12 mg/kg/injection, schedule: Q01DX015 (ip), vehicle: methylcellulose (MC)
  T/C: 96 % of control
endpoint: mean survival time, dose: 6.25 mg/kg/injection, schedule: Q01DX015 (ip), vehicle: methylcellulose (MC)
  T/C: 96 % of control
endpoint: mean survival time, dose: 12.5 mg/kg/injection, schedule: Q01DX015 (ip), vehicle: methylcellulose (MC)
  T/C: 92 % of control
endpoint: mean survival time, dose: 25.0 mg/kg/injection, schedule: Q01DX015 (ip), vehicle: methylcellulose (MC)
  T/C: 93 % of control
endpoint: mean survival time, dose: 50.0 mg/kg/injection, schedule: Q01DX015 (ip), vehicle: methylcellulose (MC)
  T/C: 96 % of control
endpoint: mean survival time, dose: 100.0 mg/kg/injection, schedule: Q01DX015 (ip), vehicle: methylcellulose (MC)
  T/C: 88 % of control
endpoint: mean survival time, dose: 200.0 mg/kg/injection, schedule: Q01DX015 (ip), vehicle: methylcellulose (MC)
  T/C: 94 % of control

## CC1(C)CC1(F)Cl (stereo unspecified)
[6]
  T/C: 103 % of control
[7]
  T/C: 97 % of control
[8]
  T/C: 101 % of control

## O=Cc1[nH]c(=O)[nH]c(=O)c1Br
endpoint: mean survival time, dose: 50.0 mg/kg/injection, schedule: Q01DX009 (ip), vehicle: saline with Tween-80
  T/C: 94 % of control
endpoint: mean survival time, dose: 100.0 mg/kg/injection, schedule: Q01DX001 (ip), vehicle: saline with Tween-80
  T/C: 112 % of control
[9]
  T/C: 98 % of control
endpoint: mean survival time, dose: 200.0 mg/kg/injection, schedule: Q01DX001 (ip), vehicle: saline with Tween-80
  T/C: 116 % of control

## O=C(c1ccc2cc(Cl)c(Cl)cc2c1)C(Cl)Cl
endpoint: mean survival time, dose: 25.0 mg/kg/injection, schedule: Q04DX002 (ip), vehicle: Klucel (hydroxypropylcellulose) (HPC)
  T/C: 90 % of control
endpoint: mean survival time, dose: 50.0 mg/kg/injection, schedule: Q04DX002 (ip), vehicle: Klucel (hydroxypropylcellulose) (HPC)
  T/C: 108 % of control
endpoint: mean survival time, dose: 100.0 mg/kg/injection, schedule: Q04DX002 (ip), vehicle: Klucel (hydroxypropylcellulose) (HPC)
  T/C: 93 % of control and 98 % of control

## Cc1cc(Br)ccc1OCC(=O)O
[5]
  T/C: 96 % of control
[10]
  T/C: 93 % of control
[11]
  T/C: 98 % of control

## CC(=O)C1(C(C)=O)C(c2cccc([N+](=O)[O-])c2)C1(c1ccccc1)[N+](=O)[O-] (stereo unspecified)
endpoint: mean survival time, dose: 100.0 mg/kg/injection, schedule: Q01DX001 (ip), vehicle: other
  T/C: 95 % of control
[9]
  T/C: 94 % of control
endpoint: mean survival time, dose: 100.0 mg/kg/injection, schedule: Q04DX003 (ip), vehicle: other
  T/C: 92 % of control
endpoint: mean survival time, dose: 200.0 mg/kg/injection, schedule: Q01DX001 (ip), vehicle: other
  T/C: 93 % of control
endpoint: mean survival time, dose: 200.0 mg/kg/injection, schedule: Q01DX009 (ip), vehicle: saline with Tween-80
  T/C: 102 % of control
endpoint: mean survival time, dose: 200.0 mg/kg/injection, schedule: Q04DX003 (ip), vehicle: other
  T/C: 92 % of control
endpoint: mean survival time, dose: 400.0 mg/kg/injection, schedule: Q01DX001 (ip), vehicle: other
  T/C: 95 % of control
endpoint: mean survival time, dose: 400.0 mg/kg/injection, schedule: Q01DX009 (ip), vehicle: saline with Tween-80
  T/C: 96 % of control
endpoint: mean survival time, dose: 400.0 mg/kg/injection, schedule: Q04DX003 (ip), vehicle: other
  T/C: 97 % of control

## Clc1ccc(Sc2ccccc2)cc1
[5]
  T/C: 105 % of control
[10]
  T/C: 88 % of control
[11]
  T/C: 105 % of control
